This note sets out measurements from ChEMBL document CHEMBL3769350, “Synthesis and biological evaluation of piperazine group-linked bivalent -carbolines as potential antitumor agents” (Medchemcomm, 2015).

A word on the IC50: it is the concentration needed to halve the response being measured. A high value points to lower potency.

Holding throughout (assay type): functional, cell-based
In one test the test system is MCF7. Put plainly: Cytotoxicity against human MCF7 cells by MTT assay. Background: Tetrazolium dyes change colour on reduction, which living cells bring about.
Another test has as its system HepG2. In words: Cytotoxicity against human HepG2 cells by MTT assay.
Another test concerns CWR22R. In words: Cytotoxicity against human 22Rv1 cells by MTT assay.
The test system of a further test is HT-29. In words: Cytotoxicity against human HT-29 cells by MTT assay.
Another test concerns 769-P. Put plainly: Cytotoxicity against human 769-P cells by MTT assay.
In the next test the test system is A-375. In words: Cytotoxicity against human A375 cells by MTT assay.
A short description of test [1]: Cytotoxicity against human SKOV3 cells by MTT assay. To be noted: SK-OV-3.
Test [2] can be described thus: Cytotoxicity against human ECA109 cells by MTT assay. To be noted: ECa-109.
Test [3] in a line: Cytotoxicity against human BGC823 cells by MTT assay. To be noted: BGC-823.
Test [4] can be described thus: Cytotoxicity against mouse LLC cells by MTT assay. To be noted: Lewis lung carcinoma.

As for `COc1cc(-c2nc(CN3CCN(Cc4cc5c6ccccc6n(CCCc6ccccc6)c5c(-c5cc(OC)c(OC)c(OC)c5)n4)CC3)cc3c4ccccc4n(CCCc4ccccc4)c23)cc(OC)c1OC`, the IC50 in the test with MCF7, in the test with HepG2, in the test with CWR22R, in the test with HT-29, with 769-P and with A-375 was more than 100 µM in each case. For the same compound, the half-inhibitory concentration (IC50) in test [1], in [2], in [3] and in [4] was more than 100 µM each time.
For `COc1ccc(-c2nc(CN3CCN(Cc4cc5c6ccccc6n(Cc6ccccc6)c5c(-c5ccc(OC)cc5)n4)CC3)cc3c4ccccc4n(Cc4ccccc4)c23)cc1`, the IC50 in the test with MCF7, with HepG2, in the test on CWR22R, in the test on HT-29, with 769-P and with A-375 was more than 100 µM each time. The IC50 was more than 100 µM in test [1], more than 100 µM in [2], more than 100 µM in [3] and 40.4 µM in [4].
Consider `c1ccc(CCCn2c3ccccc3c3cc(CN4CCN(Cc5cc6c7ccccc7n(CCCc7ccccc7)c6cn5)CC4)ncc32)cc1`, for which the IC50 was determined as 7.62 µM with MCF7; 8.95 µM in the test on HepG2; 5.32 µM with CWR22R; 18.7 µM with HT-29; 3.02 µM in the test with 769-P; 8.35 µM in the test on A-375. Further, the IC50 came out at 5.51 µM in test [1], 24.6 µM in test [2], 7.62 µM in test [3] and 5.15 µM in [4].
With `c1ccc(CCCn2c3ccccc3c3cc(CN4CCN(Cc5cc6c7ccccc7n(CCCc7ccccc7)c6c(-c6ccccc6)n5)CC4)nc(-c4ccccc4)c32)cc1`, the IC50 in the test with MCF7, in the test with HepG2, in the test on CWR22R, in the test on HT-29, in the test with 769-P and with A-375 was more than 100 µM throughout. In addition, the IC50 in [1], in [2], in test [3] and in test [4] was more than 100 µM throughout.
In the case of `CCCCn1c2ccccc2c2cc(CN3CCN(Cc4cc5c6ccccc6n(CCCC)c5c(-c5ccc(OC)cc5)n4)CC3)nc(-c3ccc(OC)cc3)c21`, the half-maximal inhibitory concentration (IC50) in the test on MCF7 came to 20.6 µM; with HepG2, 25.7 µM; in the test with CWR22R, 27.6 µM; with HT-29 it was 11.8 µM; with 769-P, 16.6 µM; in the test on A-375, 19.6 µM. The IC50 in test [1] turned out to be 24.6 µM; in [2] it was 24.7 µM; in [3], 28.8 µM; in test [4], 27.4 µM.
As for `COc1ccc(-c2nc(CN3CCN(Cc4cc5c([nH]c6ccccc65)c(-c5ccc(OC)cc5)n4)CC3)cc3c2[nH]c2ccccc23)cc1`, the IC50 in the test with MCF7, in the test on HepG2, in the test with CWR22R, with HT-29, in the test with 769-P and with A-375 was more than 100 µM throughout. Also, the IC50 in [1], in [2], in [3] and in test [4] was more than 100 µM each time.
On to `Cn1c2ccccc2c2cc(CN3CCN(Cc4cc5c6ccccc6n(C)c5c(-c5ccccc5)n4)CC3)nc(-c3ccccc3)c21`, for which the IC50 in the test with MCF7 is more than 100 µM; in the test on HepG2 it was more than 100 µM; in the test with CWR22R, 54.3 µM; with HT-29, more than 100 µM; in the test on 769-P, more than 100 µM; in the test on A-375, 40.9 µM. In addition, the IC50 was more than 100 µM in [1], more than 100 µM in test [2], more than 100 µM in test [3] and 34.5 µM in test [4].
On to `c1ccc(Cn2c3ccccc3c3cc(CN4CCN(Cc5cc6c7ccccc7n(Cc7ccccc7)c6c(-c6ccccc6)n5)CC4)nc(-c4ccccc4)c32)cc1`, for which the concentration for half-maximal inhibition (IC50) in the test with MCF7, in the test on HepG2, in the test on CWR22R, in the test with HT-29, with 769-P and with A-375 was more than 100 µM each time. Further, the IC50 in test [1], in test [2], in test [3] and in test [4] was more than 100 µM each time.
Take `Cc1nc(CN2CCN(Cc3cc4c5ccccc5n(Cc5cccc(Cl)c5)c4c(C)n3)CC2)cc2c3ccccc3n(Cc3cccc(Cl)c3)c12`: the IC50 in the test with MCF7 came to 43.7 µM; in the test on HepG2, 38.1 µM; in the test with CWR22R, 40.8 µM; with HT-29 it was 25.2 µM; with 769-P, 45.8 µM; in the test with A-375 it was 32.4 µM. For the same compound, the IC50 in [1] worked out at 51.4 µM; in [2], 57.6 µM; in [3] it was 40.8 µM; in test [4], 12 µM.
As to `COc1ccc(-c2nc(CN3CCN(Cc4cc5c6ccccc6n(C)c5c(-c5ccc(OC)cc5)n4)CC3)cc3c4ccccc4n(C)c23)cc1`, the IC50 in the test with MCF7 was more than 100 µM; with HepG2, 55 µM; in the test with CWR22R, 47.8 µM; with HT-29 it was 29 µM; in the test with 769-P it was more than 100 µM; in the test on A-375, 45.7 µM. For the same compound, the half-inhibitory concentration (IC50) in test [1] worked out at 57.8 µM; in test [2], 68.5 µM; in [3], 56.3 µM; in [4] it was 69 µM.
Take `CCn1c2ccccc2c2cc(CN3CCN(Cc4cc5c6ccccc6n(CC)c5cn4)CC3)ncc21`: the IC50 is 82.8 µM in the test on MCF7; more than 100 µM in the test with HepG2; 52.3 µM with CWR22R; 32.8 µM with HT-29; 64.3 µM in the test with 769-P; 49.9 µM with A-375. Moreover, the IC50 was 24.4 µM in test [1], more than 100 µM in [2], 68.6 µM in test [3] and 13.8 µM in test [4].
On to `Cc1nc(CN2CCN(Cc3cc4c5ccccc5n(C)c4c(C)n3)CC2)cc2c3ccccc3n(C)c12`, for which the IC50 in the test with MCF7 is more than 100 µM; with HepG2, more than 100 µM; with CWR22R, 86.3 µM; in the test with HT-29, more than 100 µM; in the test on 769-P, more than 100 µM; in the test with A-375, more than 100 µM. Also, the IC50 in test [1] was 31 µM; in test [2], more than 100 µM; in test [3], 78.5 µM; in test [4] it was 61.8 µM.
For `CCCCn1c2ccccc2c2cc(CN3CCN(Cc4cc5c6ccccc6n(CCCC)c5c(-c5ccc(OC)c(OC)c5)n4)CC3)nc(-c3ccc(OC)c(OC)c3)c21`, the IC50 came out at 14.5 µM in the test with MCF7; 17 µM in the test with HepG2; 19.5 µM with CWR22R; 11.8 µM in the test with HT-29; 10 µM with 769-P; 15.5 µM in the test on A-375. Further, the IC50 in [1] stood at 25.7 µM; in test [2], 32.4 µM; in test [3], 6.21 µM; in test [4], 9.78 µM.
`CCCCn1c2ccccc2c2cc(CN3CCN(Cc4cc5c6ccccc6n(CCCC)c5cn4)CC3)ncc21`: the IC50 with MCF7 amounted to 29.2 µM; with HepG2 it was 15.2 µM; in the test with CWR22R it was 43.9 µM; with HT-29, 17.1 µM; with 769-P, 38.2 µM; in the test on A-375, 16.8 µM. The IC50 was found to be 11.3 µM in test [1], 26.4 µM in test [2], 9.52 µM in test [3] and 2.36 µM in [4].
As for `CCn1c2ccccc2c2cc(CN3CCN(Cc4cc5c6ccccc6n(CC)c5c(-c5ccc(OC)c(OC)c5)n4)CC3)nc(-c3ccc(OC)c(OC)c3)c21`, the half-maximal inhibitory concentration (IC50) was determined as 27.3 µM with MCF7; 27.2 µM in the test on HepG2; 42.3 µM in the test on CWR22R; 34.3 µM in the test on HT-29; 61.1 µM in the test with 769-P; 37.3 µM in the test with A-375. The IC50 in test [1] stood at 32.7 µM; in test [2], 68.5 µM; in test [3], 19.8 µM; in test [4], 9.68 µM.
As for `COc1cc(-c2nc(CN3CCN(Cc4cc5c6ccccc6n(C)c5c(-c5cc(OC)c(OC)c(OC)c5)n4)CC3)cc3c4ccccc4n(C)c23)cc(OC)c1OC`, the IC50 was 65.6 µM in the test on MCF7; more than 100 µM with HepG2; more than 100 µM with CWR22R; more than 100 µM in the test with HT-29; more than 100 µM with 769-P; 64.2 µM in the test with A-375. Besides, the IC50 in test [1] was determined as 18.9 µM; in test [2], 26.3 µM; in test [3], 45.3 µM; in [4] it was 39 µM.
Turning to `COc1ccc(-c2nc(CN3CCN(Cc4cc5c6ccccc6n(Cc6ccccc6)c5c(-c5ccc(OC)c(OC)c5)n4)CC3)cc3c4ccccc4n(Cc4ccccc4)c23)cc1OC`, the half-inhibitory concentration (IC50) with MCF7, with HepG2, in the test on CWR22R, in the test with HT-29, in the test with 769-P and in the test with A-375 was more than 100 µM each time. Also, the IC50 was more than 100 µM in test [1], more than 100 µM in test [2], more than 100 µM in test [3] and 36.4 µM in test [4].
On to `c1ccc(Cn2c3ccccc3c3cc(CN4CCN(Cc5cc6c7ccccc7n(Cc7ccccc7)c6cn5)CC4)ncc32)cc1`, for which the IC50 with MCF7 is more than 100 µM; in the test with HepG2, 65.4 µM; in the test on CWR22R it was more than 100 µM; in the test with HT-29, 36.8 µM; in the test with 769-P, more than 100 µM; with A-375, more than 100 µM. Moreover, the IC50 in test [1] is 46.5 µM; in [2], more than 100 µM; in test [3], more than 100 µM; in [4], 79.8 µM.
As for `COc1ccc(-c2nc(CN3CCN(Cc4cc5c6ccccc6n(CCCc6ccccc6)c5c(-c5ccc(OC)c(OC)c5)n4)CC3)cc3c4ccccc4n(CCCc4ccccc4)c23)cc1OC`, the IC50 in the test on MCF7, in the test with HepG2, in the test on CWR22R, in the test on HT-29, in the test with 769-P and in the test on A-375 was more than 100 µM throughout. Besides, the IC50 in test [1], in [2], in test [3] and in test [4] was more than 100 µM each time.
